Where a name gives a salt, the structure may show the parent alone.
What was measured:
[1] = target: T1, human cloned 5-HT6 receptors (Homo sapiens, UniProt P50406); assay: 5-HT6 binding affinity, [3H]-LSD displacement, membranes of Hela cells expressing human cloned 5-HT6 receptors
T1 construct: expressed in transfected cells; host or cells: HeLa cells
Method: The affinity of test compounds for the serotonin 5-HT6 receptor was evaluated in the following manner. Cultured Hela cells expressing human cloned 5-HT6 receptors were harvested and centrifuged at low speed (1,000×g) for 10.0 minutes to remove the culture media. The harvested cells were suspended in half volume of fresh physiological phosphate buffered saline solution and recentrifuged at the same speed. This operation was repeated. The collected cells were then homogenized in ten volumes of 50 mM Tris.HCl (pH 7.4) and 0.5 mM EDTA. The homogenate was centrifuged at 40,000×g for 30.0 min and the precipitate was collected. The obtained pellet was resuspended in 10 volumes of Tris.HCl buffer and recentrifuged at the same speed. The final pellet was suspended in a small volume of Tris.HCl buffer and the tissue protein content was determined in aliquots of 10-25 μl volumes. Bovine Serum Albumin was used as the standard in the protein determination according to the method described in Lowry et al., J. Biol. Chem., 193: 265 (1951). The volume of the suspended cell membranes was adjusted to give a tissue protein concentration of 1.0 mg/ml of suspension. The prepared membrane suspension (10 times concentrated) was aliquoted in 1.0 ml volumes and stored at −70° C. until used in subsequent binding experiments.
Binding experiments were performed in a 96 well microtiter plate format, in a total volume of 200 μl. […] The test compounds were added in 20.0 μl volume.
The reaction was allowed to proceed in the dark for 120 minutes at room temperature, at which time, the bound ligand-receptor complex was filtered off on a 96 well unifilter with a Packard Filtermate® 196 Harvester. The bound complex caught on the filter disk was allowed to air dry and the radioactivity is measured in a Packard TopCount® equipped with six photomultiplier detectors, after the addition of 40.0 μl Microscint®-20 scintillant to each shallow well. The unifilter plate was heat-sealed and counted in a PackardTopCount® with a tritium efficiency of 31.0%.
Binding in the presence of varying concentrations of test compound was expressed as a percentage of specific binding in the absence of test compound. The results were plotted as log % bound versus log concentration of test compound. […] A linear regression line of data points was plotted, from which the IC50 value is determined and the Ki value is determined based upon the following equation: Ki=IC50/(1+L/KD) where L was the concentration of the radioactive ligand used and KD is the dissociation constant of the ligand for the receptor, both expressed in nM.

T1 sequence (P50406 whole entry): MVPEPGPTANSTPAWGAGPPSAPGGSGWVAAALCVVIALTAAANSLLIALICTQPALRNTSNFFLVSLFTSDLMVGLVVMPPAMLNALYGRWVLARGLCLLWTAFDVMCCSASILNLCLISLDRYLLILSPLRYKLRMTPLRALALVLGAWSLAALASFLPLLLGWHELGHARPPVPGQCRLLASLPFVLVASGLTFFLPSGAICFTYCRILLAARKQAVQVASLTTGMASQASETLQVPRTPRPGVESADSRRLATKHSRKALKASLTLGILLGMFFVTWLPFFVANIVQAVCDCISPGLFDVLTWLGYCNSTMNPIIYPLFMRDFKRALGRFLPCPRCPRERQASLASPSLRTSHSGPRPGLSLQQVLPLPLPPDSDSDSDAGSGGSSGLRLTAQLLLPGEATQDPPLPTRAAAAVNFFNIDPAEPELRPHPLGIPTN

Row | SMILES | melting point [°C] | Ki [1] [nM]
1 | CNCCOc1cc2c3c(c1)c(S(=O)(=O)c1cccc4ccccc14)nn3CCO2 [Example 12, N-methyl-2-{[6-(1-naphthylsulfonyl)-2,3-dihydro[1,4]oxazino[2,3,4-hi]indazol-8-yl]oxy}ethanamine Hydrochloride] | – | 5.1
2 | O=S(=O)(c1cccc2ccccc12)c1nn2c3c(cc(OCCN4CCCCC4)cc13)OCC2 [Example 14, 6-(1-Naphthylsulfonyl)-8-(2-piperidin-1-ylethoxy)-2,3-dihydro[1,4]oxazino[2,3,4-hi]-indazole] | 90 to 92 | 26
3 | O=S(=O)(c1cccc2ccccc12)c1nn2c3c(cc(OCCN4CCCC4)cc13)OCC2 [Example 15, 6-(1-Naphthylsulfonyl)-8-(2-pyrrolidin-1-ylethoxy)-2,3-dihydro[1,4]oxazino[2,3,4-hi]-indazole] | 127 to 129 | 14

Continued, values first:

Row | melting point [°C] | Ki [1] [nM] | SMILES
4 | > 225 | – | CN1CCN(c2cc3c4c(c2)c(S(=O)(=O)c2cccc5ccccc25)nn4CCO3)CC1 (as salt: hydrochloride) [Example 6, 8-(4-Methylpiperazin-1-yl)-6-(1-naphthylsulfonyl)-2,3-dihydro[1,4]oxazino[2,3,4-hi]indazole Hydrochloride]
5 | – | 1 | CN1CCN(c2cc3c4c(c2)c(S(=O)(=O)c2cccc5ccccc25)nn4CCO3)CC1 [Example 6, 8-(4-Methylpiperazin-1-yl)-6-(1-naphthylsulfonyl)-2,3-dihydro[1,4]oxazino[2,3,4-hi]indazole Hydrochloride]
6 | – | 7.9 | CN(C)CCOc1cc2c3c(c1)c(S(=O)(=O)c1cccc4ccccc14)nn3CCO2 [Example 13, N,N-Dimethyl-2-{[6-(1-naphthylsulfonyl)-2,3-dihydro[1,4]oxazino[2,3,4-hi]indazol-8-yl]oxy}ethanamine]

From patent publication US7414051B2, “Substituted-dihydro[1,4]oxazino[2,3,4-hi]indazole derivatives as 5-hydroxytryptamine-6 ligands” (Wyeth, priority 2006, dated 2008)
